Biological target: T1, THP-1 cell membranes (RANTES / MIP-1α binding; chemokine receptor, believed CCR1) (Homo sapiens, UniProt P32246)
T1 sequence (P32246 1-355): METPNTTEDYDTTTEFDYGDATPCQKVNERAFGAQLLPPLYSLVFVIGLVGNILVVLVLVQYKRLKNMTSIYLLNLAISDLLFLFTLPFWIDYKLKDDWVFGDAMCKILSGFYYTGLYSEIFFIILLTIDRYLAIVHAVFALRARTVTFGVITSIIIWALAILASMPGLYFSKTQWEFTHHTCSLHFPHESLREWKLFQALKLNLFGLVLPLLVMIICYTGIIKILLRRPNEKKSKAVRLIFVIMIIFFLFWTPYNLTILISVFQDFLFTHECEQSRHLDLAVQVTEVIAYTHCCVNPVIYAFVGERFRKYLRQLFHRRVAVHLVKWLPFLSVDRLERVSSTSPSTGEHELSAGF
Assay: Receptor binding assay, 125I-RANTES or 125I-MIP-1α binding to THP-1 cell membranes
Details: 125I-RANTES or 125I-MIP-1α as ligand, 60 min at room temperature, read-out: IC50 (inhibitor concentration required for 50% inhibition of specific binding)
Procedure: Membranes were prepared from THP-1 cells (ATCC #TIB202). Cells were harvested by centrifugation, washed twice with PBS (phosphate-buffered saline), and the cell pellets were frozen at -70 to -85° C. The frozen pellet was thawed in ice-cold lysis buffer consisting of 5 mM HEPES (N-2-hydroxyethylpiperazine-N'-2-ethane-sulfonic acid) pH 7.5, 2 mM EDTA (ethylenediaminetetraacetic acid), 5 μg/ml each aprotinin, leupeptin, and chymostatin (protease inhibitors), and 100 μg/ml PMSF (phenyl methane sulfonyl fluoride-also a protease inhibitor), at a concentration of 1 to 5×10^7 cells/ml. This procedure results in cell lysis. The suspension was mixed well to resuspend all of the frozen cell pellet. Nuclei and cell debris were removed by centrifugation of 400×g for 10 minutes at 4° C. The supernatant was transferred to a fresh tube and the membrane fragments were collected by centrifugation at 25,000×g for 30 minutes at 4° C. The supernatant was aspirated and the pellet was resuspended in freezing buffer consisting of 10 mM HEPES pH 7.5, 300 mM sucrose, 1 μg/ml each aprotinin, leupeptin, and chymostatin, and 10 μg/ml PMSF (approximately 0.1 ml per each 10^8 cells). All clumps were resolved using a minihomogenizer, and the total protein concentration was determined using a protein assay kit (Bio-Rad, Hercules, Calif., cat #500-0002). The membrane solution was then aliquoted and frozen at -70 to -85° C. until needed. Binding Assays-utilized the membranes described above. Membrane protein (2 to 20 μg total membrane protein) was incubated with 0.1 to 0.2 nM ^125I-labeled RANTES or MIP-1α with or without unlabeled competitor (RANTES or MIP-1α) or various concentrations of compounds. The binding reactions were performed in 60 to 100 μl of a binding buffer consisting of 10 mM HEPES pH 7.2, 1 mM CaCl2, 5 mM MgCl2, and 0.5% BSA (bovine serum albumin), for 60 min at room temperature. The binding reactions were terminated by harvesting the membranes by rapid filtration through glass fiber filters (GF/B or GF/C, Packard) which were presoaked in 0.3% polyethyleneimine. The filters were rinsed with approximately 600 μl of binding buffer containing 0.5 M NaCl, dried, and the amount of bound radioactivity was determined by scintillation counting in a Topcount beta-plate counter. […] Specific binding is defined as the total binding minus the non-specific binding; non-specific binding is the amount of cpm still detected in the presence of excess unlabeled Rantes or ^125MIP-1α.

Compared with `OC1(c2ccc(Cl)cc2)CCN(CCC=C(c2cccnc2)c2ccnc(Br)c2)CC1` [Example 4, 1-[4-(2-Bromo-4-pyridinyl)-4-(3-pyridinyl)-3-butenyl]-4-(4-chlorophenyl)piperidin-4-ol], `COc1cccc(C(=CCCN2CCC(O)(c3ccc(Cl)cc3)CC2)c2cccnc2)c1` [Example 1, 4-(4-Chlorophenyl)-1-[4-(3-methoxyphenyl)-4-(3-pyridinyl)-3-butenyl]piperidin-4-ol] is lower in IC50: greater than 1000 nM for the first, less than 1000 nM for the second.

`OC1(c2ccc(Cl)cc2)CCN(CCC=C(c2ccccc2)c2cccnc2)CC1` [Example 2, 4-(4-Chlorophenyl)-1-[4-phenyl-4-(3-pyridinyl)-3-butenyl]piperidin-4-ol] and `COc1ccc(OC)c(C(=CCCN2CCC(O)(c3ccc(Cl)cc3)CC2)c2cccnc2)c1` [Example 3, 4-(4-Chlorophenyl)-1-[4-(2,5-dimethoxyphenyl)-4-(3-pyridinyl)-3-butenyl]piperidin-4-ol] cannot be ordered by IC50: less than 1000 nM for the first, less than 1000 nM for the second.

Reference: patent US6503926B2, “Chemokine receptor antagonists and methods of use therefor” (Millennium Pharmaceuticals, Inc., priority 1998, dated 2003)
